Laboratory results from patent US20230174608A1, “Polypeptide Derivative Having Dual Receptor Agonistic Action and Use Thereof” (TIANJIN INSTITUTE OF PHARMACEUTICAL RESEARCH CO., LTD., priority 2020, published 2023).
Where a SMILES comes first, the peptide text is derived from it.

Assays:
[1] = tested on: glucose loaded normal mice; assay: Glucose loading test on normal mice after single administration; type: in vivo, Kunming mice
Method in brief: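 Male Kunming mice (20-22 g), 5 per group, fasted 6 h, received compound or semaglutide at 30 nmol/kg or saline. Glucose 2.5 g/kg given intragastrically 60 min post-dose; blood glucose measured 30 min after glucose loading.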

GLP-1R = target: T1, GLP-1R (Homo sapiens, UniProt P43220); assay: GLP-1 receptor-mediated cAMP production in vitro; type: cell-based; details: HEK293 cell line stably expressing GLP-1R
T1 construct: expressed in transfected cells
T1 sequence (P43220 24-463, species assumed): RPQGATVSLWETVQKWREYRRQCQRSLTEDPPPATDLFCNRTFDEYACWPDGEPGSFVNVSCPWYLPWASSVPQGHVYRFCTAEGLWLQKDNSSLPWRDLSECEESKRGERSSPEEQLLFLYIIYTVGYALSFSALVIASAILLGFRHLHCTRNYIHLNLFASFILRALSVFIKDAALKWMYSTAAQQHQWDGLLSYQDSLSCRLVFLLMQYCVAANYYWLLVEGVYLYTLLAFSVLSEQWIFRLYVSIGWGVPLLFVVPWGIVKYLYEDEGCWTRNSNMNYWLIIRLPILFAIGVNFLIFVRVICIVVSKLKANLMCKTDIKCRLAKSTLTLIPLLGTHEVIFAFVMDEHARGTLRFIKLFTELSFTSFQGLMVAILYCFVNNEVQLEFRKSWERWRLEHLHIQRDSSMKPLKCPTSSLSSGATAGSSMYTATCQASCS
Method in brief: (§1)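 HEK293 cells stably expressing human GLP-1R or GCGR are stimulated with compound for 30 min in the dark in serum-free medium with 0.5 mM IBMX, with test dilutions spanning 1 μM down to 10^−3 nM. cAMP is detected after a 60 min room-temperature reaction as the 665/615 nm ratio.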

[2] = tested on: diet-induced obesity (DIO) mice; assay: DIO model mice, weight after 2 weeks of administration; type: in vivo, C57BL/6N mice; details: 30 nmol/kg s.c. once a day, 14 days
Source text: Method: C57BL/6N mice were fed with H10060 high-fat diets to obtain diet-induced obesity (DIO) models, and mice in a control group (n=5) were fed with standard diets. One day before the first administration, the mice in the model group were randomly divided into 6 groups according to their weights (within a range of 40.5-50.5 g), i.e., a model control group, a positive control group, and test compound groups (dgc003, dgc004, dgc010, and dgc017), respectively, 5 mice in each group, which were administered once a day by subcutaneous injection. Saline was subcutaneously injected into each mouse in the blank control group and the model control group every day. The administration was performed for 14 days. The positive control drug and the test compounds were administered at a dose of 30 nmol/kg, and the administration volume for each group was 0.005 mL/g weight. The mice were weighed before each administration, and 72-h food intake was weighed every three days.

GCGR = target: T2, GCGR (Homo sapiens, UniProt P47871); assay: GC receptor-mediated cAMP production in vitro; type: cell-based; details: HEK293 cell line stably expressing GCGR
T2 construct: expressed in transfected cells
T2 sequence (P47871 26-477, species assumed): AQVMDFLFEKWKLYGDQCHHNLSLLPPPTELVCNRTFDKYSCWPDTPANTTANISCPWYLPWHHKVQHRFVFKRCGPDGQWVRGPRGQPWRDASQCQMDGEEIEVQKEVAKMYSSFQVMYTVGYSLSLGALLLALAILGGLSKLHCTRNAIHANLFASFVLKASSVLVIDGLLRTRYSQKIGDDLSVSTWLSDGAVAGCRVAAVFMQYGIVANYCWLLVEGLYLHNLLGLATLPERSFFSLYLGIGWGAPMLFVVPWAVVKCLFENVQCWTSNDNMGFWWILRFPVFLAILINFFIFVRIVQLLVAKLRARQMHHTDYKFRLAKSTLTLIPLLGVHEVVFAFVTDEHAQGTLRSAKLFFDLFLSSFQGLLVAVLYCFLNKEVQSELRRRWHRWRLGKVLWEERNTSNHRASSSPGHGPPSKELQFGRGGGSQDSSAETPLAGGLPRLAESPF
Method in brief: as §1

## CCCCCCCCCCCCCCCC(=O)N[C@@H](CCC(=O)NCCCC[C@H](NC(=O)[C@H](C)NC(=O)[C@H](C)NC(=O)[C@H](CCCCN)NC(=O)[C@H](CCC(=O)O)NC(=O)[C@H](CC(=O)O)NC(=O)[C@H](CC(C)C)NC(=O)[C@H](Cc1ccc(O)cc1)NC(=O)[C@H](CCCCN)NC(=O)[C@H](CO)NC(=O)[C@H](Cc1ccc(O)cc1)NC(=O)[C@H](CC(=O)O)NC(=O)[C@H](CO)NC(=O)[C@@H](NC(=O)[C@H](Cc1ccccc1)NC(=O)[C@@H](NC(=O)CNC(=O)[C@H](CCC(N)=O)NC(=O)C(C)(C)NC(=O)[C@@H](N)Cc1c[nH]cn1)[C@@H](C)O)[C@@H](C)O)C(=O)N[C@@H](CCC(=O)O)C(=O)N[C@@H](Cc1ccccc1)C(=O)N[C@H](C(=O)N[C@@H](C)C(=O)N[C@@H](Cc1c[nH]c2ccccc12)C(=O)N[C@@H](CC(C)C)C(=O)N[C@@H](CCC(=O)O)C(=O)NCC(=O)NCC(N)=O)[C@@H](C)CC)C(=O)O [dgc017] (HELM PEPTIDE1{H.[Aib].Q.G.T.F.T.S.D.Y.S.K.Y.L.D.E.K.A.A.K.E.F.I.A.W.L.E.G.G.[am]}|PEPTIDE2{[CCCCCCCCCCCCCCCC(=O)[*:2]].[gGlu]}$PEPTIDE1,PEPTIDE2,20:R3-2:R2$$$V2.0; N-terminus assumed)
[1]; 30 nmol/kg single dose, after glucose loading, versus model control group
  Blood glucose reduction rate (%): 39.06%
[1]; 30 nmol/kg single dose, glucose 2.5 g/kg intragastric 60 min after administration, measured 30 min after loading, n=5
  Blood glucose level after glucose loading: 10.36 ± 1.87 mmol/L
[1]; normal mice fasted 6 h, 30 nmol/kg group, n=5
  Fasting blood glucose level: 3.72 ± 0.37 mmol/L
GLP-1R
  EC50: 0.627 nM
[2]
  Weight decreasing rate by the last administration: 15.9%
GCGR
  EC50: 3.95 nM
